Test results taken from ChEMBL document CHEMBL1150549, “Synthesis and antifungal activity of new azole derivatives containing an oxathiane ring” (1996).
Converted amounts (≈) assume the structure as drawn.

Key:
Assay type in all cases: functional
Aspergillus fumigatus = test: In vitro antifungal activity against Aspergillus fumigatus MTU6001
Mus musculus [1] = test: In vivo antifungal activity against Aspergillus fumigatus in mice at a dose of 50 mg/kg upon oral administration
Mus musculus [2] = test: In vivo antifungal activity against Candida albicans in mice at a dose of 10 mg/kg upon oral administration
Candida albicans = test: In vitro antifungal activity against Candida albicans KB-8
Mus musculus [3] = test: In vivo antifungal activity against Aspergillus fumigatus in mice at a dose of 100 mg/kg upon oral administration

`CC1COC(Cn2cncn2)(c2ccc(F)cc2F)C(C)(C)S1(=O)=O` (single isomer, unassigned) was tested, and the MIC (Aspergillus fumigatus) was 12.5 µg/mL (≈ 33.7 µM), the Mean survival days (Mus musculus [1]) was 9.4 days and the Mean survival days (Mus musculus [2]) was 10 days. It also gave an MIC (Candida albicans) of 0.39 µg/mL (≈ 1.05 µM).
For `CC1(C)SCCOC1(Cn1cncn1)c1ccc(F)cc1F` (single isomer, unassigned), the MIC (Aspergillus fumigatus) was 3.13 µg/mL (≈ 9.62 µM), the Mean survival days (Mus musculus [1]) was 9.8 days and the Mean survival days (Mus musculus [2]) was 8.6 days. It also gave an MIC (Candida albicans) of 0.1 µg/mL (≈ 0.307 µM).
`C[C@@H]1SCCOC1(Cn1cncn1)c1ccc(F)cc1F` (single isomer, unassigned) showed an MIC (Aspergillus fumigatus) of 25 µg/mL (≈ 80.3 µM), a Mean survival days (Mus musculus [1]) of 1.9 days and a Mean survival days (Mus musculus [2]) of 2 days. For the same compound, the MIC (Candida albicans) was 0.1 µg/mL (≈ 0.321 µM).
`CC1(C)C(Cn2cncn2)(c2ccc(F)cc2F)OCCS1(=O)=O` (single isomer, unassigned) was tested, and the MIC (Aspergillus fumigatus) was 100 µg/mL (≈ 280 µM), the Mean survival days (Mus musculus [1]) was 10 days and the Mean survival days (Mus musculus [2]) was 9.4 days. The MIC (Candida albicans) was 3.13 µg/mL (≈ 8.76 µM).
`C[C@H]1C(Cn2cncn2)(c2ccc(F)cc2F)OCCS1(=O)=O` (single isomer, unassigned) was tested, and the MIC (Aspergillus fumigatus) was > 100 µg/mL, the Mean survival days (Mus musculus [1]) was 1.8 days and the Mean survival days (Mus musculus [2]) was 1.2 days. The MIC (Candida albicans) was 3.13 µg/mL (≈ 9.12 µM).
In the case of `C[C@@H]1C(Cn2cncn2)(c2ccc(F)cc2F)OCCS1(=O)=O` (single isomer, unassigned), the MIC (Aspergillus fumigatus) is reported as > 100 µg/mL, the Mean survival days (Mus musculus [1]) is reported as 1.1 days and the Mean survival days (Mus musculus [2]) is reported as 6.9 days. For the same compound, the MIC (Candida albicans) was 6.25 µg/mL (≈ 18.2 µM).
Compound `C[C@H]1SCCOC1(Cn1cncn1)c1ccc(F)cc1F` (single isomer, unassigned) has an MIC (Aspergillus fumigatus) of 50 µg/mL (≈ 161 µM), a Mean survival days (Mus musculus [1]) of 1.5 days and a Mean survival days (Mus musculus [2]) of 4.9 days. For the same compound, the MIC (Candida albicans) was 0.2 µg/mL (≈ 0.642 µM).
`OC(Cn1cncn1)(Cn1cncn1)c1ccc(F)cc1F` [FLUCONAZOLE] showed an MIC (Aspergillus fumigatus) of 400 µg/mL (≈ 1310 µM), a Mean survival days (Mus musculus [2]) of 10 days and a Mean survival days (Mus musculus [3]) of 2.8 days. The MIC (Candida albicans) was 0.78 µg/mL (≈ 2.55 µM).
Work on `C[C@H]([C@](O)(Cn1cncn1)c1ccc(F)cc1F)S(C)(=O)=O` [GENACONAZOLE] yielded an MIC (Aspergillus fumigatus) of 25 µg/mL (≈ 75.5 µM), a Mean survival days (Mus musculus [1]) of 10 days and a Mean survival days (Mus musculus [2]) of 10 days. For the same compound, the MIC (Candida albicans) was 0.39 µg/mL (≈ 1.18 µM).
